For eight compounds, Emax and EC50 results are on record in US20230061736A1, “GPR119 AGONISTS” (Kallyope, Inc., priority 2019, published 2023).

The structures appear in SMILES notation.

The target of this test is T1, human GPR119 (hGPR119) (Homo sapiens, UniProt Q8TDV5).
T1 construct: expressed in transfected cells
T1 sequence (Q8TDV5 1-335): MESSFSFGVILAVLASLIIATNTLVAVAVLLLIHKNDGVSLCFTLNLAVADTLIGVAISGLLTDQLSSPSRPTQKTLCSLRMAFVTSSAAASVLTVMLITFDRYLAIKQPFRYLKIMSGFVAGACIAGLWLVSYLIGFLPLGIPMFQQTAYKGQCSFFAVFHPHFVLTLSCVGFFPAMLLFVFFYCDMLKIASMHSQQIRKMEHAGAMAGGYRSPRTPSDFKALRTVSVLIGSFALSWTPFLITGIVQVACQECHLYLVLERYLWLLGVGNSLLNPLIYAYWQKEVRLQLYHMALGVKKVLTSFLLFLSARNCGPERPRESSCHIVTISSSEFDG
As to the kind of experiment: cAMP accumulation assay (cAMP Gs dynamic HTRF kit). Type of test: cell-based. Particulars: CHO-K1 cells stably expressing hGPR119, 4-parameter fit; for Emax: 1 h, % activity normalized to Max/Min controls; for EC50: cAMP accumulation. The procedure, abridged:
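Read-out is HTRF 665/620 nm ratio after 1 h detection at ambient temperature, converted to % activity against positive and negative controls, EC50 and Max activity by 4-parameter fit. Compounds were titrated onto ~10,000 thawed hGPR119-CHO-K1 cells/well for 60 min at 37° C/5% CO2.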
In general terms: cAMP levels reflect the balance of adenylyl cyclase and phosphodiesterase activity.

As for `O=C(Cc1ccc(OCCCC2CC3(CCN(c4ncc(Cl)cn4)CC3)C2)cc1F)N1CC(CNC[C@H](O)[C@@H](O)[C@H](O)[C@H](O)CO)C1` [Example 105, 2-[4-[3-[7-(5-chloropyrimidin-2-yl)-7-azaspiro[3.5]nonan-2-yl]propoxy]-2-fluoro-phenyl]-1-[3-[[[(2S,3R,4R,5R)-2,3,4,5,6-pentahydroxyhexyl]amino]methyl]azetidin-1-yl]ethanone], the Emax was in the range of 100 to 130% and the concentration for a half-maximal effect (EC50) was ≤ 100 nM.

As for `O=C(Cc1ccc(OCCCC2CCN(c3ncc(Cl)cn3)CC2)cc1F)N1CC(CN[C@@H]2C[C@H](O)[C@@H](O)[C@H]2O)C1` (racemic) [Example 49, 2-[4-[3-[1-(5-chloropyrimidin-2-yl)-4-piperidyl]propoxy]-2-fluoro-phenyl]-1-[3-[[[rac-(1R,2S,3R,4S)-2,3,4-trihydroxycyclopentyl]amino]methyl]azetidin-1-yl]ethanone], the Emax is ≥ 130% and the EC50 lay in the range of 100 to 1000 nM.

On to `COCc1cnc(N2CCC([C@H]3C[C@H]3CCOc3ccc(CC(=O)N4CC[C@@H](CNCC(O)(CO)CO)C4)c(F)c3)CC2)nc1` [Example 162, 2-[2-fluoro-4-[2-[(1S,2R)-2-[1-[5-(methoxymethyl)pyrimidin-2-yl]-4-piperidyl]cyclopropyl]ethoxy]phenyl]-1-[(3S)-3-[[[2,3-dihydroxy-2-(hydroxymethyl)propyl]amino]methyl]pyrrolidin-1-yl]ethanone], for which the Emax was in the range of 100 to 130% and the EC50 is ≤ 100 nM.

In the case of `O=C(CC1CN(C(=O)Cc2ccc(OCCCC3CCN(c4ncc(Cl)cn4)CC3)cc2F)C1)NCCCCS(=O)(=O)O` [Example 178, 4-[[2-[1-[2-[4-[3-[1-(5-chloropyrimidin-2-yl)-4-piperidyl]propoxy]-2-fluoro-phenyl]acetyl]azetidin-3-yl]acetyl]amino]butane-1-sulfonic acid], the Emax is 100 to 130% and the EC50 lay in the range of 100 to 1000 nM.

`COCC1(C(=O)NC[C@H](O)[C@@H](O)[C@H](O)[C@H](O)CO)CCN(C(=O)Cc2ccc(OCCCC3CCN(c4ncc(Cl)cn4)CC3)cc2F)C1` (stereo partly drawn) [Example 136, 1-[2-[4-[3-[1-(5-chloropyrimidin-2-yl)-4-piperidyl]propoxy]-2-fluoro-phenyl]acetyl]-3-(methoxymethyl)-N-[(2S,3R,4R,5R)-2,3,4,5,6-pentahydroxyhexyl]pyrrolidine-3-carboxamide]: the maximal response (Emax) was in the range of 100 to 130% and the EC50 was ≤ 100 nM.

Turning to `O=C(NC(CO)(CO)CO)C1CN(C(=O)Cc2c(F)cc(OCCCC3CCN(c4ncc(Cl)cn4)CC3)cc2F)C1` [Example 26, 1-[2-[4-[3-[1-(5-chloropyrimidin-2-yl)-4-piperidyl]propoxy]-2,6-difluoro-phenyl]acetyl]-N-[2-hydroxy-1,1-bis(hydroxymethyl)ethyl]azetidine-3-carboxamide], the maximum response (Emax) is ≥ 130% and the EC50 was ≤ 100 nM.

Regarding `NS(=O)(=O)CCCNC(=O)Cc1ccc(OCCCC2CCN(c3ncc(Cl)cn3)CC2)cc1F` [Example 13, 2-[4-[3-[1-(5-chloropyrimidin-2-yl)-4-piperidyl]propoxy]-2-fluoro-phenyl]-N-(3-sulfamoylpropyl)acetamide], the maximum response (Emax) was ≥ 130% and the EC50 was ≤ 100 nM.

With `COCc1cnc(N2CCC(CCCOc3cc(F)c(CC(=O)N4CC[C@@H](CNC(CO)(CO)CO)C4)c(F)c3)CC2)nc1` [Example 158, 2-[2,6-difluoro-4-[3-[1-[5-(methoxymethyl)pyrimidin-2-yl]-4-piperidyl]propoxy]phenyl]-1-[(3S)-3-[[[2-hydroxy-1,1-bis(hydroxymethyl)ethyl]amino]methyl]pyrrolidin-1-yl]ethanone], the Emax is 100 to 130% and the EC50 is ≤ 100 nM.

The term Emax denotes the maximal effect, on the per cent scale that the assay sets. Usually EC50 stands for the midpoint of the concentration-response curve.
